Each block holds one compound with its values, some of them ahead of it. The source made the active and inactive calls.
How the values were obtained:
[1] = (§1) Counterscreen for antagonists of the orexin 1 receptor (OX1R; HCRTR1): Fluorescence-based cell-based high throughput dose response assay to identify antagonists of the parental CHO cell line. [Related pubchem assays (depositor defined):AID434989, AID435008, AID463079, AID485270, AID492963, AID492964, AID492965, AID493232, AID504699, AID504701]; format: functional
Orexin receptor type 2 [2] = molecular target: T1, Orexin receptor type 2 (Homo sapiens, UniProt O43614); assay: Counterscreen assay for antagonists of the orexin 1 receptor (OX1R; HCRTR1): Homogeneous Time Resolved Fluorescence (HTRF)-based cell-based dose response assay for antagonists of the orexin 2 receptor (OX2R; HCRTR2), run by assay provider.; format: functional
T1 sequence (O43614 whole entry): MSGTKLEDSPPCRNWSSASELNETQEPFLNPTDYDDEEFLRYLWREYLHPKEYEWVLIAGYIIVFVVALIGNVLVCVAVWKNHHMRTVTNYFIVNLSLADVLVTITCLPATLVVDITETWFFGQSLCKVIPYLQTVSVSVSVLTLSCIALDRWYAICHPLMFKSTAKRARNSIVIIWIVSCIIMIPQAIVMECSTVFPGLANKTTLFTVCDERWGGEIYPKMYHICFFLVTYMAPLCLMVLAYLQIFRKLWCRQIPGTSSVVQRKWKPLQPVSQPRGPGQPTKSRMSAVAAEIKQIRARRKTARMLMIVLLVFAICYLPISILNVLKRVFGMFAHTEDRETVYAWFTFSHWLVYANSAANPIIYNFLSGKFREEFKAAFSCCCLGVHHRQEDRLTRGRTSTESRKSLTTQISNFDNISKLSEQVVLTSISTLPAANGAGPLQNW

[3] = molecular target: T2, Orexin/Hypocretin receptor type 1 (Homo sapiens, UniProt O43613); assay: (§2) Fluorescence-based cell-based high throughput dose response assay for antagonists of the orexin 1 receptor (OX1R; HCRTR1). [Related pubchem assays (depositor defined):AID434989, AID435008, AID463079, AID485270, AID492963, AID492964, AID492965, AID493232, AID504717, AID504718]; format: functional
T2 sequence (O43613 whole entry): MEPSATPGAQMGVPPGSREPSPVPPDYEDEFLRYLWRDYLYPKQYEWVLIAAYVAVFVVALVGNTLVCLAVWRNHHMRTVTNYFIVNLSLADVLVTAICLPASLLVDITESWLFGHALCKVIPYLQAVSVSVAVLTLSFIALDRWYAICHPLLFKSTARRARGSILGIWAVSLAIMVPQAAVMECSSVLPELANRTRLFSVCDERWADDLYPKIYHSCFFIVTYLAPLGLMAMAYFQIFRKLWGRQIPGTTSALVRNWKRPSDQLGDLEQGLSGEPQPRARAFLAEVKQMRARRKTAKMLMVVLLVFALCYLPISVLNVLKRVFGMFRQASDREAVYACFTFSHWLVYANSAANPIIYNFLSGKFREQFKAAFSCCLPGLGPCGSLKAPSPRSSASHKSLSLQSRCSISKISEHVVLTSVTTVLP

CHO-K1 = assay: as §1, with “Homogeneous time resolved fluorescence (HTRF)-based” for “Fluorescence-based”, “cell-based” for “cell-based high throughput”, “CHO-K1” for “CHO”; format: functional; details: Cricetulus griseus;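 note: potency for inhibition of ATP-stimulated IP1 production as antagonists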
Orexin receptor type 2 [4] = molecular target: T1, Orexin receptor type 2; assay: Counterscreen assay for antagonists of the orexin 1 receptor (OX1R; HCRTR1): Fluorescence-based cell-based dose response assay for antagonists of the orexin 2 receptor (OX2R; HCRTR2), run by assay provider.; format: functional
[5] = molecular target: T2, Orexin/Hypocretin receptor type 1; assay: as §2, with “Homogeneous Time Resolved Fluorescence (HTRF)-based” for “Fluorescence-based”; format: functional
[6] = molecular target: T3, Methionyl-tRNA synthetase, putative (Trypanosoma brucei brucei, UniProt Q38C91); format: functional, Trypanosoma brucei brucei strain 927/4 GUTat10.1
T3 sequence (Q38C91 whole entry): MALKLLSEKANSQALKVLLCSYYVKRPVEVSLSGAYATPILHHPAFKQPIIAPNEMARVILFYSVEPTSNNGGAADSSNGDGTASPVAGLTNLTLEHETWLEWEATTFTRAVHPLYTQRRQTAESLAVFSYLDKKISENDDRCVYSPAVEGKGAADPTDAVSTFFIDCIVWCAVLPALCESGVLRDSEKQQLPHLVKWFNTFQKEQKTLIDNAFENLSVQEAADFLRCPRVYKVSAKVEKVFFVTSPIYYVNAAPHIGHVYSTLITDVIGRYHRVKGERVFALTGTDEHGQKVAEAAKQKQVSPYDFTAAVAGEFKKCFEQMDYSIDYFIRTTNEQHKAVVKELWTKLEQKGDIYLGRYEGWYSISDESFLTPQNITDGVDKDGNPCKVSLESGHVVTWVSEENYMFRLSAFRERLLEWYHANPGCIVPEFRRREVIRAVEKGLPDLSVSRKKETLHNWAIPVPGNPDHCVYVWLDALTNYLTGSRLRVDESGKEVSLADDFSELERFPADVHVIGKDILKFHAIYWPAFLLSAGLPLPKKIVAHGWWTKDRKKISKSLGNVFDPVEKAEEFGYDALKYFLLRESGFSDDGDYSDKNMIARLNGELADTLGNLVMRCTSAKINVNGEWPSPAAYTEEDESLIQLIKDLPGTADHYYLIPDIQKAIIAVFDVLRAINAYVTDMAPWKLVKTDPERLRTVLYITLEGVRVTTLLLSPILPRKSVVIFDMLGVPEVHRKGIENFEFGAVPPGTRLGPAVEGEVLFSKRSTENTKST

[7] = NIH-3T3 fibroblast cytotoxicity, dose response, cytotoxicity control, cell-based, fluorescence, Alamar Blue, secondary assay (AID 2327); format: functional;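 note: NIH-3T3 mouse fibroblasts cultured with fluconazole at 8 µg/mL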
[8] = Counterscreen for inhibitors of Trypanosoma brucei methionyl tRNA synthetase (MetRS): Luminescence-based cell-based high throughput dose response assay to identify compounds that are cytotoxic to Jurkat human T lymphocyte cells.; format: functional
[9] = molecular target: T4, Sentrin-specific protease 1 (Homo sapiens, UniProt Q9P0U3); assay: potency of human SENP1 inhibitors, dose response, biochemical, kinetic FRET (AID 651697); format: functional; details: read-out: IC50_Mean
T4 sequence (Q9P0U3 whole entry): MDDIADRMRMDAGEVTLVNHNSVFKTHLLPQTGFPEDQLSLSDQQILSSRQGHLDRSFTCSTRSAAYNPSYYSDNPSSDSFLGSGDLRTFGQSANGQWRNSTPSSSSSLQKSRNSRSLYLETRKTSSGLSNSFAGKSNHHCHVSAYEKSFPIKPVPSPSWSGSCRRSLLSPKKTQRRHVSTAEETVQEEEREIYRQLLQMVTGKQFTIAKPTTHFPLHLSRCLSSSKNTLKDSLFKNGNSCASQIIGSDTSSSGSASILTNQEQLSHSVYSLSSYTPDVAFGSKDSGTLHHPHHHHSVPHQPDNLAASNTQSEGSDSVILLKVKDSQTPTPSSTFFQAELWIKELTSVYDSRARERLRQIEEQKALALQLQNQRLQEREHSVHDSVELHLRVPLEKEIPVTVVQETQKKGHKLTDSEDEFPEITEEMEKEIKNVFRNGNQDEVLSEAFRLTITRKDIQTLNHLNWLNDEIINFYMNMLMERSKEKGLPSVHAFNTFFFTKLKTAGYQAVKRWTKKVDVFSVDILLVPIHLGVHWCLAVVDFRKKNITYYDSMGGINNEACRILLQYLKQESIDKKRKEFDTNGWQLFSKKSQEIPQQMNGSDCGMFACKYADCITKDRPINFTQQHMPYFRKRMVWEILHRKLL

[10] = C. albicans growth with fluconazole, confirmation, fluorescence, retest (AID 2467); format: functional, cell-based
[11] = molecular target: T4, Sentrin-specific protease 1; assay: Dose response confirmation of small molecule inhibitors of the catalytic domain of the SUMO protease, SENP1 in a FRET assay.; format: functional; details: read-out: IC50_Mean
[12] = molecular target: T3, Methionyl-tRNA synthetase, putative; format: functional, Trypanosoma brucei brucei strain 927/4 GUTat10.1; remark: listed apart in the source
[13] = molecular target: ADP-ribosylation factor GTPase-activating protein 1 (Rattus norvegicus, UniProt Q62848); assay: Fluorescence polarization-based biochemical high throughput dose response screening assay to identify inhibitors of ADP-ribosylation factor GTPase activating protein 1 (ARFGAP1).; format: functional
Chain of ADP-ribosylation factor GTPase-activating protein 1 (Q62848 whole entry): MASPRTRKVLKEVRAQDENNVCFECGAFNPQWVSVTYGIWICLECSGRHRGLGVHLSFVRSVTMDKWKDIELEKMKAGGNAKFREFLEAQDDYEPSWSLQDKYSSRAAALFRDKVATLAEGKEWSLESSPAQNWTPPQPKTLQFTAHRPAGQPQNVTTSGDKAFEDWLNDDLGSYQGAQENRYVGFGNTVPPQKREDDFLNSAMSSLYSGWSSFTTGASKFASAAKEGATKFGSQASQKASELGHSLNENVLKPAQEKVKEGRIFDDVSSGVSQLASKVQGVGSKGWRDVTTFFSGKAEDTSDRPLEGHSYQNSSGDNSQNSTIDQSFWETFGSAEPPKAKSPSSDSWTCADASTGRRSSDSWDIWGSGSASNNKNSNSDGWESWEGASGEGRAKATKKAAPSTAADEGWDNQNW

[14] = StAR promoter reporter inhibition counter-screen, dose response, counter-screen for LRH-1 inverse agonist project, cell-based, luminescence, luciferase reporter (AID 651969); format: functional
[15] = molecular target: Nuclear receptor subfamily 5 group A member 2 (Homo sapiens, UniProt O00482); format: functional, cell-based;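 note: HEK293T cells transfected with LRH-1 and a StAR promoter luciferase reporter; potency for inhibitors that lower LRH-1 driven reporter light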
Chain of Nuclear receptor subfamily 5 group A member 2 (O00482 whole entry): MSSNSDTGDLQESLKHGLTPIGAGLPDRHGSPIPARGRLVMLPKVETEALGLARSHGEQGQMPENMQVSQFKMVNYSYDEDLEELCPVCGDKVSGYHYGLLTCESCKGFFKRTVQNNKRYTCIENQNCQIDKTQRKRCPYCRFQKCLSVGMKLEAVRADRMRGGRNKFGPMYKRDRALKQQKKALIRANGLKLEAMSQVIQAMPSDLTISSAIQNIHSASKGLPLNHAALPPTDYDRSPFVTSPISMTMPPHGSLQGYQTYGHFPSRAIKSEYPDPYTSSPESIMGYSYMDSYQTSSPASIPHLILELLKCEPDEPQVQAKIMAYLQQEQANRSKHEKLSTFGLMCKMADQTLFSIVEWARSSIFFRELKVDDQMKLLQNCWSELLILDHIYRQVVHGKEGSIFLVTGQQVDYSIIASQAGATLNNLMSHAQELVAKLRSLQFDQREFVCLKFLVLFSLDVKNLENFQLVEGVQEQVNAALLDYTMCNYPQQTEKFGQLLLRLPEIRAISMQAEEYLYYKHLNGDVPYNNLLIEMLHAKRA

Steroidogenic factor 1 = Steroidogenic factor 1 (Homo sapiens, UniProt Q13285); assay: Counterscreen for inverse agonists of the liver receptor homolog-1 (LRH-1; NR5A2): Luminescence-based cell-based high throughput dose response assay to identify inverse agonists of the Steroidogenic Factor 1 Nuclear Receptor (SF1; NR5A1).; format: functional
Chain of Steroidogenic factor 1 (Q13285 whole entry): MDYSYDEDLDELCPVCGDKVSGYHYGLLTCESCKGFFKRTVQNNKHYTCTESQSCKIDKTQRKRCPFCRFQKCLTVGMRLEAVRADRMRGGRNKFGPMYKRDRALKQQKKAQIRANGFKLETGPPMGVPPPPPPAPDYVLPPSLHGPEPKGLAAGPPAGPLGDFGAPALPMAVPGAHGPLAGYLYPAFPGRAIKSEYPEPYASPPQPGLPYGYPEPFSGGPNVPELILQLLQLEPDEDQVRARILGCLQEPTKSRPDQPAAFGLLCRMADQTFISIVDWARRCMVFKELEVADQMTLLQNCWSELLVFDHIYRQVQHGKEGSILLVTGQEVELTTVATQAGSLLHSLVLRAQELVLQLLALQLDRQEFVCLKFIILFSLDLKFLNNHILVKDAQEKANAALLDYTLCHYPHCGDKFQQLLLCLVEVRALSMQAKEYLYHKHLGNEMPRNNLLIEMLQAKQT

[16] = molecular target: T5, Rac GTPase-activating protein 1 (Homo sapiens, UniProt Q9H0H5); assay: MgcRacGAP GTPase-activating activity inhibitors, confirmation, biochemical, ADP Hunter fluorescence, primary and confirmatory (AID 624330); format: functional
T5 sequence (Q9H0H5 whole entry): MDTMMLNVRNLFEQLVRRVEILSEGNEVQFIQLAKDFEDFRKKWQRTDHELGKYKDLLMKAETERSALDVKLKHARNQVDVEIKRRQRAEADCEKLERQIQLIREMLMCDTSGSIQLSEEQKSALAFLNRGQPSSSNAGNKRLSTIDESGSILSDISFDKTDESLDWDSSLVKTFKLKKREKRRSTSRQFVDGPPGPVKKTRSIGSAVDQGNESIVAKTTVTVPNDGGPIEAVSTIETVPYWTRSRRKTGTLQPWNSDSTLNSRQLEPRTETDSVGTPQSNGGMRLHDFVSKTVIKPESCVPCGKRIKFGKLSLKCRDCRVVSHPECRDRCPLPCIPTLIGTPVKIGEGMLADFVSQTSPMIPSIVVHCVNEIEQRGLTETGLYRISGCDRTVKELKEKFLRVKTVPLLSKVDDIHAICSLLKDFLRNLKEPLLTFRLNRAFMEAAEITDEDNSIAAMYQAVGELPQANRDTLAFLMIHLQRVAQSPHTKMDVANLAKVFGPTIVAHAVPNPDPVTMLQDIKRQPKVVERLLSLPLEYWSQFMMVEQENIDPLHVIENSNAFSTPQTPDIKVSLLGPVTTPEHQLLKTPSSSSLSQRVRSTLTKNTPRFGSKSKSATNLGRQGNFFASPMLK

Protein Wnt-3a = Protein Wnt-3a (Mus musculus, UniProt P27467); assay: Wnt3a-driven reporter signaling inhibition, dose response, selectivity assay for Gli-SUFU antagonist project, Wnt-LIGHT cells, luminescence (AID 651570); format: functional; details: read-out: IC50_Mean;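 note: Wnt-LIGHT reporter cells stimulated with conditioned medium from Wnt3a-producing cells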
Chain of Protein Wnt-3a (P27467 whole entry): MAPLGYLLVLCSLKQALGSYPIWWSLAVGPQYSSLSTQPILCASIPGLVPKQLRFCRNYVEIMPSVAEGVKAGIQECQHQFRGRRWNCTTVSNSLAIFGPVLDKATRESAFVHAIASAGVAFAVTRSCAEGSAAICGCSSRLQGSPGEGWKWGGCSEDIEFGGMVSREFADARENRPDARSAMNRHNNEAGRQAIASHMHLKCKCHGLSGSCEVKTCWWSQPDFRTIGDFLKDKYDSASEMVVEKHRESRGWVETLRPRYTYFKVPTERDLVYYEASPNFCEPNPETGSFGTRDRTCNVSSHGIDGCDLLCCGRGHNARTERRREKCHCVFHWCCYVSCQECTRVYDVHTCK

[17] = Luminescence Cell-Based Dose Retest to Confirm Inhibitors of Cancer Stem Cells. [Related pubchem assays (depositor defined):AID2717, AID2721]; format: functional; details: Homo sapiens
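Throughout, for AC50: cells exposed to compound for roughly 70 hours or longer before luminescence read.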

Structure (SMILES): Cc1c(C(=O)OCC(=O)NCCN2C(=O)CSC2=O)oc2c1ccc1ccccc12
IC50 [1]: > 49.7 µM (inactive) | IC50 (Orexin receptor type 2 [2]): > 50 µM (inactive) | IC50 [3]: 6.78 µM (active) | IC50 (CHO-K1): > 66.2 µM (inactive) | IC50 (Orexin receptor type 2 [4]): > 88.8 µM (inactive) | IC50 [5]: 1.23 µM (active)

Structure (SMILES): CCOc1cc(/C=C2\SC(=S)N(NS(=O)(=O)c3ccccc3)C2=O)ccc1O
IC50 [6]: 41.8 µM (inactive) | EC50 [7]: > 150 µM (inactive) | IC50 [8]: 83.3 µM (inactive) | IC50 [9]: 3.73 µM (active) | EC50 [10]: 1.88 µM (active) | IC50 [11]: 2.41 µM (active) | IC50 [12]: 122 µM (inactive)

IC50 [13]: 44.9 µM (inactive)
Structure (SMILES): COc1ccc2oc(C(=O)OCC(=O)N3CC(C)CC(C)C3)c(C)c2c1 (centres undefined)

Structure (SMILES): C[C@H](O)[C@@H]1CN2CCc3c([nH]c4ccccc34)[C@@H]2C[C@@H]1N(C)C(=O)Nc1cc(Cl)cc(Cl)c1
IC50 [6]: 8.53 µM (active) | IC50 [8]: 15.8 µM (inactive) | IC50 [12]: 14.9 µM (inactive)

IC50 [13]: 101 µM (inactive)
Structure (SMILES): C=CCNc1nc(NCCOC)c2sc(-c3ccccc3)cc2n1

Structure (SMILES): CC(C)CC1(C)NC(=O)N(CC(=O)Nc2ccc3c(c2)OCCO3)C1=O (centres undefined)
IC50 [14]: 35.9 µM (inactive) | IC50 [15]: 42.7 µM (inactive) | IC50 (Steroidogenic factor 1): 7.12 µM (active)

IC50 [9]: 15.5 µM (active) | IC50 [16]: 38.7 µM (active) | IC50 [11]: 11.2 µM (active)
Structure (SMILES): COc1cc(/C=C2\SC(=Nc3c(C)n(C)n(-c4ccccc4)c3=O)NC2=O)ccc1O

IC50 (Protein Wnt-3a): 24.3 µM (inactive)
Structure (SMILES): CC(=O)c1ccc(N2CCN(c3ccc(C(F)(F)F)cn3)CC2)cc1

Structure (SMILES): Cn1c2ccccc2c(=O)c2cc(C#Cc3ccccn3)ccc21
IC50 [1]: > 49.7 µM (inactive) | AC50 [17]: 9.17 µM (active) | IC50 (Orexin receptor type 2 [2]): > 50 µM (inactive) | IC50 [3]: 3.9 µM (active) | IC50 (CHO-K1): > 66.2 µM (inactive) | IC50 (Orexin receptor type 2 [4]): > 88.8 µM (inactive) | IC50 [5]: 0.413 µM (active)

IC50 (Protein Wnt-3a): 13.2 µM (active)
Structure (SMILES): Cc1ccc(C)c([N+]2=C3CCCCN3C(O)(c3cccs3)C2)c1 (centres undefined)

Structure (SMILES): Fc1cccc(Nc2nc3ccccc3n3cnnc23)c1
IC50 [1]: > 49.8 µM (inactive) | IC50 (Orexin receptor type 2 [2]): 2.13 µM (active) | IC50 [3]: 7.59 µM (active) | IC50 (CHO-K1): > 66.3 µM (inactive) | IC50 (Orexin receptor type 2 [4]): > 88.8 µM (inactive) | IC50 [5]: 2.03 µM (active)

From ChEMBL document CHEMBL1201862, “PubChem BioAssay data set” (2004)
